According to US12707555B2, “Low-temperature dielectric barrier discharge devices” (The Trustees of Princeton University, priority 2022, dated 2026):

What was measured:
[1] = system: E. coli 10-beta; experiment: Quantitative disinfection of bacteria dried on glass coverslips (CFU count, log reduction); assay type: cell-based; conditions: 3% H2O2 alone, flex-DBD off; R=0.97
Experimental: (§1) To quantify disinfection, bacteria (E. coli 10-beta, Standard E. coli AMS 198 or OP50-GFP) were inoculated on glass coverslips (25 mm diameter). Four droplets of 5 μl each (20 μl) of the bacterial culture (starting concentration 10^8 CFU/ml) were placed onto each coverslip and allowed to dry for approximately 40 min. The slides with dry bacterial culture were then placed onto the flex-DBD with the inoculated side directly in contact with the discharge. The coverslips were treated for 10, 30, 90, and 270 s. At the end of the treatment time, the treated coverslip was placed in a centrifuge tube with 7.5 ml LB, enough to cover the coverslip. The tubes were vortexed on a medium setting for 20 s to recover the bacteria from the treated surface but not damage the cell membrane. The resulting bacterial suspension was spread on LB-agar plates and incubated for 24 h. Cultures were then counted and the number used to calculate the logarithmic reductions of bacterial concentration. […] Pieces of material were disinfected by soaking for 5 min in a 70% solution of isopropyl alcohol then dried thoroughly for at least 30 min. […] An inoculated glass coverslip was placed on top of the solution with the bacteria in contact with the solution. […] Statistical significance between pairs of treatments was evaluated using repeated measures ANOVA.

[2] = system: E. coli AMS 198 (ATCC-11229); experiment: as above; assay type: cell-based; conditions: 3% H2O2 alone, flex-DBD off; R=0.947
Experimental: as §1

[3] = system: E. coli; experiment: Disinfection of inoculated coverslips with flex-DBD in conjunction with 3% H2O2 solution (strain not stated at the result); assay type: cell-based; conditions: H2O2 with only UV radiation from flex-DBD (UV filter); after the first 30 s
Experimental: Pieces of material were disinfected by soaking for 5 min in a 70% solution of isopropyl alcohol then dried thoroughly for at least 30 min. […] An inoculated glass coverslip was placed on top of the solution with the bacteria in contact with the solution. At the end of each treatment, the coverslip and the cloth were dropped into a centrifuge tube with 7.5 ml of LB solution. The same recovery and plating procedure was used in all experiments. […] To block all the output from the plasma except light, a thin film filter transparent down to 190 nm was placed between the DBD and H2O2. […] When possible, ImageJ (1.53c) software was used to count CFUs, otherwise the counting was done visually. […] All the experiments were performed in triplicates of samples and plates. Statistical significance between pairs of treatments was evaluated using repeated measures ANOVA.

[4] = system: bacterial load; conditions: cited from earlier work

SMILES: OO [H2O2, hydrogen peroxide]
- time for 1 log10 reduction, D [1]: 139±5 s
- time for 1 log10 reduction, D [2]: 135±5 s
- time for 1 log10 reduction, D [3]: > 250 s
- reduction ([4]; H2O2 droplets added into a corona discharge): 6 log10
- reduction in the bacterial load ([4]; H2O2 vapor added to the plasma effluent): greater than 6 log10
